Experimental findings from patent US20260062422A1 (Halda Therapeutics OpCo, Inc., priority 2022, published 2026) are described below.

The target of one assay is T1, progesterone receptor (Homo sapiens, UniProt P06401).
T1 construct: host or cells: T47D cells (cytosolic fraction)
T1 sequence (P06401 1-933): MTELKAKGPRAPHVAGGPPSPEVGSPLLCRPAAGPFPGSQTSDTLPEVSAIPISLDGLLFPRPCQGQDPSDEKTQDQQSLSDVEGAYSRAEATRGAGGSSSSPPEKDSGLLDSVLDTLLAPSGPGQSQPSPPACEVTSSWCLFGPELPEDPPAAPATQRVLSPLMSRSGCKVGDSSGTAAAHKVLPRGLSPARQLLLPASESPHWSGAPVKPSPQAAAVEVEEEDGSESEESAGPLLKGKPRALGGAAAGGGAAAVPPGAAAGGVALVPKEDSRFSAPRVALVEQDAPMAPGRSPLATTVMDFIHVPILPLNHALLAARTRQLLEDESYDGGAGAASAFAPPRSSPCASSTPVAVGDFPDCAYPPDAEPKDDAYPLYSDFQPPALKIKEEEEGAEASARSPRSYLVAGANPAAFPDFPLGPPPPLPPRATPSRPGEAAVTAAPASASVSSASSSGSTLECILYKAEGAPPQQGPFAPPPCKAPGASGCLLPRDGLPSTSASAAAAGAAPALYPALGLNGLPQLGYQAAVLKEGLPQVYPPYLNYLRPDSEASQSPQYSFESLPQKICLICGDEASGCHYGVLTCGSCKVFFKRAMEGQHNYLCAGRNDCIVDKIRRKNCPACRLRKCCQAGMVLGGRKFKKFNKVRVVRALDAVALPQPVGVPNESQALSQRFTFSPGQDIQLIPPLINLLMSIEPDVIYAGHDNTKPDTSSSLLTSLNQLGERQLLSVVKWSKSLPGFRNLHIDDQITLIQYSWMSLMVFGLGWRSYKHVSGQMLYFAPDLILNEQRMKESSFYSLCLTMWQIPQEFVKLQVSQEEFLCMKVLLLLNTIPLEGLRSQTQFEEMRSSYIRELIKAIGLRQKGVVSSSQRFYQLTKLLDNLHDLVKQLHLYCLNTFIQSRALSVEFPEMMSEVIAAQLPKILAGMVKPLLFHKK
Kind of assay: PR Human Progesterone NHR Binding (Agonist Radioligand) Assay, T47D cytosol. The conditions noted are these: T47D cytosolic fractions, 0.5 nM [3H]progesterone, 1 hour at 4° C., Table 16. How it is done: Compounds were tested using the PR Human Progesterone NHR Binding (Agonist Radioligand) Assay, Cerep at Eurofins Discovery using a modified version of the protocol from Sarup et al. (Cancer Res 1988; 48:5071-5078). Briefly, cytosolic fractions of T47D cells were incubated with 0.5 nM [^3H]progesterone for 1 hour at 4° C. in the absence or presence of the test compound. Nonspecific binding was determined in the presence of 1 μM promegestone. Reactions were subjected to scintillation counting. Results are expressed as a percent inhibition of the control radioligand specific binding.

The nature of assay [1]: Cellular growth inhibition, T-Rex 293 SC cells with doxycycline (progesterone receptor isoform B induced), Example 47. The format is cell-based. To be noted: progesterone receptor isoform B induced with 10 ng/mL doxycycline, 72 hours, CellTiter-Glo 2.0, Table 14 (Example 47). How it is done: The following types of cells were prepared for this experiment: (i) a T-Rex 293 cell line having increased expression of progesterone receptor isoform B protein due to exposure to doxycycline and (ii) a T-Rex 293 cell line lacking increased expression of progesterone receptor isoform B protein. Ability of the test compounds to inhibit proliferation of the foregoing cell types was evaluated according to the procedures set forth below.
The doxycycline-inducible progesterone receptor isoform B protein expressing cell line was established using the following protocol: T-Rex 293 cells were purchased from Invitrogen (Cat #R71007) and transfected using Lipofectamine 2000 with the wild-type progesterone receptor B protein sequence cloned into the pcDNA4/TO vector. Transfected cells were selected using 400 μg/mL Zeocin (Invitrogen Cat #R25001). Following selection, single clones were raised and maintained in Dulbecco's Modified Eagle Medium (DMEM) supplemented with 10% w/w Tetracycline-free fetal bovine serum (FBS) and 250 μg/mL Zeocin. Clones were analyzed for expression of progesterone receptor isoform B protein in the presence and absence of 10 ng/mL doxycycline (Sigma Cat #D9891), and a single doxycycline-inducible clone (hereinafter “SC”) was selected for use in downstream assays.
The SC cells were seeded on poly-D-lysine coated, black clear-bottom 384-well plates at 2500/well, in 25 μL Phenol Red Free Dulbecco's Modified Eagle Medium (DMEM) supplemented with 10% w/w charcoal-dextran treated fetal bovine serum (FBS) and 1% w/w pen-strep, with or without 10 ng/mL doxycycline. Pen-Strep is a commercially available mixture of penicillin G and streptomycin, which is used in mammalian cell culture media to prevent bacterial contamination. Phenol Red Free Dulbecco's Modified Eagle Medium (DMEM) supplemented with 10% w/w charcoal-dextran treated fetal bovine serum (FBS) and 1% w/w pen-strep, with or without 10 ng/mL doxycycline is herein referred to as Treatment Medium. Following seeding of cells in the plates, the plates were spun at 300×g for 30 seconds, then equilibrated to room temperature for 30 minutes, and then deposited in a humidified tissue culture incubator maintained at 37° C. with 5% CO2.
At 24 hours after seeding of the cells, dilutions of test compound were prepared in DMSO and dissolved in Treatment Medium, to achieve a final DMSO concentration of 0.5% w/w, thereby providing the Test Compound Solution. A 25 μL aliquot of the Test Compound Solution was added to cells in the well plates. An equal volume of a solution containing DMSO and Treatment Medium was used as a negative control. Following treatment of cells with Test Compound Solution or said equal volume of a solution containing DMSO and Treatment Medium, the plates were spun at 300×g for 30 seconds, and then left in an incubator for 72 hours.
At the end of the treatment duration, cell viability was quantified with CellTiter-Glo 2.0 reagent (Promega Cat #G9243). For this purpose, plates were equilibrated to room temperature for 30 minutes, and then 25 μL of CellTiter-Glo 2.0 reagent was added to cells in the plate wells. Plates were then agitated on a shaker for two minutes at 500 rpm and subsequently incubated at room temperature for 10 minutes. Following incubation, the plates were spun at 3000×g for 30 seconds, then sealed with an optical adhesive cover, and luminescence readings were measured with an EnVision Plate Reader (Perkin Elmer).
Data was normalized using zero luminescence for baseline. A four-parameter non-linear regression curve fit was applied to dose-response data in GraphPad Prism data analysis software to determine the half-maximal growth inhibitory concentration (GI50) for each test compound.

The Ki is a measure of affinity in units of concentration, obtained from inhibition or displacement. Low readings indicate tighter binding, high ones weaker binding. Compound `Cc1sc2c(c1C)C(c1ccc(N3CC(C4CCN(c5ncc(C(=O)N[C@H]6C(C)(C)[C@H](Oc7ccc(C#N)c(Cl)c7)C6(C)C)cn5)CC4)C3)cc1)=N[C@@H](C)c1nnc(C)n1-2` [Compound I-271] returned a Ki at progesterone receptor of less than 0.05 µM.
In general, GI50 refers to the concentration that inhibits growth by half. Read a high GI50 as lower sensitivity of the cells. In assay [1], `Cc1sc2c(c1C)C(c1ccc(Cl)cc1)=N[C@@H](CC(=O)NCCOCCOCCOCC1CCN(c3ncc(C(=O)N[C@H]4C(C)(C)[C@H](Oc5ccc(C#N)c(Cl)c5)C4(C)C)cn3)CC1)c1nnc(C)n1-2` [Compound I-17] registered a concentration for 50% growth inhibition (GI50) of 0.5 to 1.5 µM.
As to `Cc1sc2c(c1C)C(c1ccc(CC3CC4(CCN(c5ncc(C(=O)N[C@H]6C(C)(C)[C@H](Oc7ccc(C#N)c(Cl)c7)C6(C)C)cn5)CC4)C3)cc1)=N[C@@H](C)c1nnc(C)n1-2` [Compound I-436], the inhibition constant Ki at progesterone receptor is 0.05 to 0.5 µM.
`Cc1sc2c(c1C)C(c1ccc(N3CC(CC4CCN(c5ncc(C(=O)N[C@H]6C(C)(C)[C@H](Oc7ccc(C#N)c(Cl)c7)C6(C)C)cn5)CC4)C3)cc1)=N[C@@H](C)c1nnc(C)n1-2` [Compound I-270]: at progesterone receptor, the inhibition constant (Ki) was less than 0.05 µM.
Consider `Cc1sc2c(c1C)C(c1ccc(Cl)cc1)=N[C@@H](CC(=O)NCCOC1CCN(c3ncc(C(=O)N[C@H]4C(C)(C)[C@H](Oc5ccc(C#N)c(Cl)c5)C4(C)C)cn3)CC1)c1nnc(C)n1-2` [Compound I-6], for which the GI50 in assay [1] is less than 0.5 µM.
On to `Cc1sc2c(c1C)C(c1ccc(OC3CC4(C3)CC3(CCN(c5ncc(C(=O)N[C@H]6C(C)(C)[C@H](Oc7ccc(C#N)c(Cl)c7)C6(C)C)cn5)CC3)C4)cc1)=N[C@@H](Cc1ncco1)c1nnc(C)n1-2` [Compound I-283], for which the Ki on progesterone receptor was less than 0.05 µM.
`Cc1sc2c(c1C)C(c1ccc(Cl)cc1)=N[C@@H](CC(=O)NCCOCCOCCOCCOC1CCN(c3ncc(C(=O)N[C@H]4C(C)(C)[C@H](Oc5ccc(C#N)c(Cl)c5)C4(C)C)cn3)CC1)c1nnc(C)n1-2` [Compound I-11] came in with a 50% growth inhibitory concentration (GI50) in assay [1] of less than 0.5 µM.
Still for that read-out and setting: for `Cc1sc2c(c1C)C(c1ccc(Cl)cc1)=N[C@@H](CC(=O)NCCOCCOCCOCCOCCN(C)c1ncc(C(=O)N[C@H]3C(C)(C)[C@H](Oc4ccc(C#N)c(Cl)c4)C3(C)C)cn1)c1nnc(C)n1-2` [Compound I-3, N-((1r,3r)-3-(3-chloro-4-cyanophenoxy)-2,2,4,4-tetramethylcyclobutyl)-2-((1-((S)-4-(4-chlorophenyl)-2,3,9-trimethyl-6H-thieno[3,2-f][1,2,4]triazolo[4,3-a][1,4]diazepin-6-yl)-2-oxo-6,9,12,15-tetraoxa-3-azaheptadecan-17-yl)(methyl)amino)pyrimidine-5-carboxamide] the value was less than 0.5 µM; for `Cc1sc2c(c1C)C(c1ccc(Cl)cc1)=N[C@@H](CC(=O)NCCOCCOCCOCCOCCOC1CCN(c3ncc(C(=O)N[C@H]4C(C)(C)[C@H](Oc5ccc(C#N)c(Cl)c5)C4(C)C)cn3)CC1)c1nnc(C)n1-2` [Compound I-8], less than 0.5 µM; for `Cc1sc2c(c1C)C(c1ccc(Cl)cc1)=N[C@H](CC(=O)NCCOCCOCCOCCOC1CCN(c3ncc(C(=O)N[C@H]4C(C)(C)[C@H](Oc5ccc(C#N)c(Cl)c5)C4(C)C)cn3)CC1)c1nnc(C)n1-2` [Compound I-13], less than 0.5 µM.
On progesterone receptor, `Cc1sc2c(c1C)C(c1ccc(CC3CC4(CCN(c5ncc(C(=O)N[C@H]6C(C)(C)[C@H](Oc7ccc(C#N)c(Cl)c7)C6(C)C)cn5)CC4)C3)cc1)=N[C@@H](C)c1nnc(C)n1-2` [Compound I-303] had a Ki of less than 0.05 µM.
The compound `Cc1sc2c(c1C)C(c1ccc(Cl)cc1)=N[C@H](CC(=O)NCCOCCOCCOCCOCCN(C)c1ncc(C(=O)N[C@H]3C(C)(C)[C@H](Oc4ccc(C#N)c(Cl)c4)C3(C)C)cn1)c1nnc(C)n1-2` [Compound I-19] yielded a GI50 in assay [1] of 0.5 to 1.5 µM.
Regarding `Cc1sc2c(c1C)C(c1ccc(Cl)cc1)=N[C@H](CC(=O)NCCOCCOCCOCCOCCOC1CCN(c3ncc(C(=O)N[C@H]4C(C)(C)[C@H](Oc5ccc(C#N)c(Cl)c5)C4(C)C)cn3)CC1)c1nnc(C)n1-2` [Compound I-14], the GI50 in assay [1] is less than 0.5 µM.
Consider `CCNC(=O)C[C@@H]1N=C(c2ccc(N3CCC(OC4CCN(c5ncc(C(=O)N[C@H]6C(C)(C)[C@H](Oc7ccc(C#N)c(Cl)c7)C6(C)C)cn5)CC4)CC3)cc2)c2c(sc(C)c2C)-n2c(C)nnc21` [Compound I-114], for which the inhibition constant Ki at progesterone receptor is less than 0.05 µM.
Regarding `Cc1sc2c(c1C)C(c1ccc(OC3CC4(CCN(c5ncc(C(=O)N[C@H]6C(C)(C)[C@H](Oc7ccc(C#N)c(Cl)c7)C6(C)C)cn5)CC4)C3)cc1)=N[C@@H](Cc1ncco1)c1nnc(C)n1-2` [Compound I-49, N-[3-(3-chloro-4-cyano-phenoxy)-2,2,4,4-tetramethyl-cyclobutyl]-2-[2-[4-[(9S)-4,5,13-trimethyl-9-(oxazol-2-ylmethyl)-3-thia-1,8,11,12-tetrazatricyclo[8.3.0.02,6]trideca-2(6),4,7,10,12-pentaen-7-yl]phenoxy]-7-azaspiro[3.5]nonan-7-yl]pyrimidine-5-carboxamide], the 50% growth inhibitory concentration (GI50) in assay [1] was less than 0.5 µM.
Same read-out and setting: for `Cc1sc2c(c1C)C(c1ccc(Cl)cc1)=N[C@@H](CC(=O)NCCOCCOCCOCCOCCOCCOCCN(C)c1ncc(C(=O)N[C@H]3C(C)(C)[C@H](Oc4ccc(C#N)c(Cl)c4)C3(C)C)cn1)c1nnc(C)n1-2` [Compound I-4] the value was less than 0.5 µM.
In turn, `Cc1sc2c(c1C)C(c1ccc(OCCOC3CCN(c4ncc(C(=O)N[C@H]5C(C)(C)[C@H](Oc6ccc(C#N)c(Cl)c6)C5(C)C)cn4)CC3)cc1)=N[C@@H](CC(=O)OC(C)(C)C)c1nnc(C)n1-2` [Compound I-235, tert-butyl 2-((S)-4-(4-(2-((1-(5-(((1r,3r)-3-(3-chloro-4-cyanophenoxy)-2,2,4,4-tetramethylcyclobutyl)carbamoyl)pyrimidin-2-yl)piperidin-4-yl)oxy)ethoxy)phenyl)-2,3,9-trimethyl-6H-thieno[3,2-f][1,2,4]triazolo[4,3-a][1,4]diazepin-6-yl)acetate] gave a Ki on progesterone receptor of less than 0.05 µM.
Compound `CCNC(=O)C[C@@H]1N=C(c2ccc(OCC3CN(c4ncc(C(=O)N[C@H]5C(C)(C)[C@H](Oc6ccc(C#N)c(Cl)c6)C5(C)C)cn4)C3)cc2)c2c(sc(C)c2C)-n2c(C)nnc21` [Compound I-71] returned an inhibition constant Ki on progesterone receptor of less than 0.05 µM.
